Active and inactive are the calls of the source.
What was measured:
SUMO-activating enzyme = SUMO-activating enzyme (Homo sapiens, UniProt Q9UBT2); assay: inhibitors of in vitro SUMOylation cascade, primary screen, biochemical, HTRF, uHTS (AID 2006); format: protein-complex assay
[1] = target: T1, Histone-lysine N-methyltransferase NSD2 (Homo sapiens, UniProt O96028); format: biochemical
T1 sequence (O96028 whole entry): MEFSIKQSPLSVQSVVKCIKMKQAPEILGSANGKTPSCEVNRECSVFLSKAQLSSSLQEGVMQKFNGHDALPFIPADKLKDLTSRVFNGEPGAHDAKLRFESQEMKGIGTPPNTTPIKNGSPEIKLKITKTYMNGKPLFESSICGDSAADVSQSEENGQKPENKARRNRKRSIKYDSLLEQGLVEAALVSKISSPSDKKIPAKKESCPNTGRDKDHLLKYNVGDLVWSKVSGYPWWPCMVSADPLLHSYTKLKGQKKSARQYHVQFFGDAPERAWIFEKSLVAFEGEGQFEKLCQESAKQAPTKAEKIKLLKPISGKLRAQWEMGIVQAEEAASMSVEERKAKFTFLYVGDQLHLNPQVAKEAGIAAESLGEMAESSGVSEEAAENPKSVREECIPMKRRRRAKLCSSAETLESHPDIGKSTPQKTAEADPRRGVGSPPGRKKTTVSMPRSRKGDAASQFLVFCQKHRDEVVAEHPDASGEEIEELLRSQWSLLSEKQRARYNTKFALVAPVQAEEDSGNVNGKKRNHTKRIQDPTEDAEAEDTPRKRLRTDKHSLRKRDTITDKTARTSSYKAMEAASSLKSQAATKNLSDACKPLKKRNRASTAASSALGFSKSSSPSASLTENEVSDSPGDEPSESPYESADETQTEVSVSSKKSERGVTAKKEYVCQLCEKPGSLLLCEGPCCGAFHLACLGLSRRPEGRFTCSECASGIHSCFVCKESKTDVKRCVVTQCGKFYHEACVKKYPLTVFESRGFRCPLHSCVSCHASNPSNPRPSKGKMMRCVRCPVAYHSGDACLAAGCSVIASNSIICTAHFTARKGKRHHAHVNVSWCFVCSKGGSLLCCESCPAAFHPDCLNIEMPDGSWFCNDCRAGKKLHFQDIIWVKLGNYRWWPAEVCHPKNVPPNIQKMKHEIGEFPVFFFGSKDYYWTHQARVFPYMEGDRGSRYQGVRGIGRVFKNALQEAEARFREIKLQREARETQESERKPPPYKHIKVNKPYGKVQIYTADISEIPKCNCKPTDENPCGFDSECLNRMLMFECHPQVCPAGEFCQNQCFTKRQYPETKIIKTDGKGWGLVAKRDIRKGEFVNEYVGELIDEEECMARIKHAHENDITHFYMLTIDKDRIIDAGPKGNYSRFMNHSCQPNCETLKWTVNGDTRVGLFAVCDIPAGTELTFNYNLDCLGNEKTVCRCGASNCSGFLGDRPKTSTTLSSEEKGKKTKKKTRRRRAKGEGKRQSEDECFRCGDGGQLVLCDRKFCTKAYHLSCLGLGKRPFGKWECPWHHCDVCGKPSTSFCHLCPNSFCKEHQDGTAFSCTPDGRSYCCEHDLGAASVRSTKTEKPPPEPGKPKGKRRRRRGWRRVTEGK

[2] = target: Serine/threonine-protein kinase D3 (Homo sapiens, UniProt O94806); format: functional;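 note: determined within a kinase panel screen, with PRKCN as the panel member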
Serine/threonine-protein kinase D3, sequence (O94806 whole entry): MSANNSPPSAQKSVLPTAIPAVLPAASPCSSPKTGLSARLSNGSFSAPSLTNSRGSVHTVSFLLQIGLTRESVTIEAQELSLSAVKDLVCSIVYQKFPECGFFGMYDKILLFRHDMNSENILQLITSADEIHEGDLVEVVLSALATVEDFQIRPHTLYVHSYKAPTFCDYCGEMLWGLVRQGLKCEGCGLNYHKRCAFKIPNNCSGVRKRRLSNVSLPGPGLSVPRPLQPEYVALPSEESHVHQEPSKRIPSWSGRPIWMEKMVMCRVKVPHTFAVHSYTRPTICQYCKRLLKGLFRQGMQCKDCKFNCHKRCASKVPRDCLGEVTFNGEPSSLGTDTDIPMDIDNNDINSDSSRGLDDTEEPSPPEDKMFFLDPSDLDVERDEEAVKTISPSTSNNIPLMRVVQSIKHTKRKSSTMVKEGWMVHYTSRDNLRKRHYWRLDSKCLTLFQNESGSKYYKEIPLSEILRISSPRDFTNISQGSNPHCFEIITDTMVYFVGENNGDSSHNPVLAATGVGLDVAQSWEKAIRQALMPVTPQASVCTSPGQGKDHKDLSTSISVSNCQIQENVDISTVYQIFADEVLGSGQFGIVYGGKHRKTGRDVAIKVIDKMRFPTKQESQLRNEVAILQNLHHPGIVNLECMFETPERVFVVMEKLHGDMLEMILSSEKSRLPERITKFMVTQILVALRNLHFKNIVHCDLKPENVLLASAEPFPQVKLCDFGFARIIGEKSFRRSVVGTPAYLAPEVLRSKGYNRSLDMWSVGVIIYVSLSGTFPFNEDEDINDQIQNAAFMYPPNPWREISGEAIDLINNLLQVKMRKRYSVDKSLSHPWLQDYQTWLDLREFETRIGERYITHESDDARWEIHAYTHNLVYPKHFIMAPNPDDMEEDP

[3] = target: Tyrosine-protein kinase Lck (Homo sapiens, UniProt P06239); format: functional;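 note: lck was assayed as one member of a kinase panel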
Tyrosine-protein kinase Lck, sequence (P06239 whole entry, the tested form may be a part): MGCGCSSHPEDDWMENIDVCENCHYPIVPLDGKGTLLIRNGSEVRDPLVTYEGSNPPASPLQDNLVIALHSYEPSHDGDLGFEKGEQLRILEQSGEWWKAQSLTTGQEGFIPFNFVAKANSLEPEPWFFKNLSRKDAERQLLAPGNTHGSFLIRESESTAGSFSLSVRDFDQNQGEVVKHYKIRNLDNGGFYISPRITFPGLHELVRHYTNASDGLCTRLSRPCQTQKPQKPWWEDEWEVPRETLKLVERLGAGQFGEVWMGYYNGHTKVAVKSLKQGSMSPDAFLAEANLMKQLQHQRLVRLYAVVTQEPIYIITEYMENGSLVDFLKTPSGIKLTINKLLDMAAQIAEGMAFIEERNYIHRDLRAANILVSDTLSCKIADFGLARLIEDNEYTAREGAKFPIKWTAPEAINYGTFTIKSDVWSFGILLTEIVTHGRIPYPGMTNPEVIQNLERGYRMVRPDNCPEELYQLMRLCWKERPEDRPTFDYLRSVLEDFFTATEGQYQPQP

LIM domain kinase 1 = LIM domain kinase 1 (Homo sapiens, UniProt P53667); assay: Navigating the Kinome. Panel member name: LIMK1; format: functional
LIM domain kinase 1, sequence (P53667 whole entry, the tested form may be a part): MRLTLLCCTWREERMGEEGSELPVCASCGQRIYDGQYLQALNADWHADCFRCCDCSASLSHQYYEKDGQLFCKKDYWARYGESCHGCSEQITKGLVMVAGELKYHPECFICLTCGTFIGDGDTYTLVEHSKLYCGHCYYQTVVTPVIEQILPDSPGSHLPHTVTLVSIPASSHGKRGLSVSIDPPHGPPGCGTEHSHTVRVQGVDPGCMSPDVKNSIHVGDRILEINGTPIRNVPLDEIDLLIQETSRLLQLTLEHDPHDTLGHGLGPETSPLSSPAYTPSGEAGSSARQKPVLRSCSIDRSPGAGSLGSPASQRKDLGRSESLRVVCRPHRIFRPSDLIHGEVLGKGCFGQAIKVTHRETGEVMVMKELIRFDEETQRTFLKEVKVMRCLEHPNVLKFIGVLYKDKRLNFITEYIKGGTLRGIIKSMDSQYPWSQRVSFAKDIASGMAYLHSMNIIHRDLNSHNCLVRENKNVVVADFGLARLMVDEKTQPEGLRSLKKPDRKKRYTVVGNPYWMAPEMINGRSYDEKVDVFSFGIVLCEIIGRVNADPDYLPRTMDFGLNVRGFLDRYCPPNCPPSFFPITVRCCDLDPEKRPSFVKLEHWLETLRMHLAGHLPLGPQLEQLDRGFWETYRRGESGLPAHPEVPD

[4] = target: Serine/threonine-protein kinase Chk1 (Homo sapiens, UniProt O14757); format: functional;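 note: measured as one member of a kinome-wide kinase profiling panel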
Serine/threonine-protein kinase Chk1, sequence (O14757 whole entry): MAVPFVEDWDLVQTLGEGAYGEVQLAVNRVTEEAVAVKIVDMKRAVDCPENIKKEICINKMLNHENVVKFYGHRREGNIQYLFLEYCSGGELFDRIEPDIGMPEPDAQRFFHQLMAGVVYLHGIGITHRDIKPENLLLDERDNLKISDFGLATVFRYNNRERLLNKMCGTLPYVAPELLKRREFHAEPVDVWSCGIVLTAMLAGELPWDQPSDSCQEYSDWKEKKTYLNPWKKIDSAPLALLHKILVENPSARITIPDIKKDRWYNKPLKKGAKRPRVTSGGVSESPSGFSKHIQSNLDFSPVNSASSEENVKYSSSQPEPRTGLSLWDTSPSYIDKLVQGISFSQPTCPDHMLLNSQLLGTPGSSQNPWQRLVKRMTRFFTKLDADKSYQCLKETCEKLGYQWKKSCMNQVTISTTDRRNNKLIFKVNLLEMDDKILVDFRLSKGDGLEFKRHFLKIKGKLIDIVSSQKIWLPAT

[5] = target: Insulin-like growth factor 1 receptor (Homo sapiens, UniProt P08069); assay: Navigating the Kinome. Panel member name: IGF1R; format: functional
[6] = target: Platelet-derived growth factor receptor alpha (Homo sapiens, UniProt P16234); assay: Navigating the Kinome. Panel member name: PDGFRA; format: functional
Platelet-derived growth factor receptor alpha, sequence (P16234 whole entry): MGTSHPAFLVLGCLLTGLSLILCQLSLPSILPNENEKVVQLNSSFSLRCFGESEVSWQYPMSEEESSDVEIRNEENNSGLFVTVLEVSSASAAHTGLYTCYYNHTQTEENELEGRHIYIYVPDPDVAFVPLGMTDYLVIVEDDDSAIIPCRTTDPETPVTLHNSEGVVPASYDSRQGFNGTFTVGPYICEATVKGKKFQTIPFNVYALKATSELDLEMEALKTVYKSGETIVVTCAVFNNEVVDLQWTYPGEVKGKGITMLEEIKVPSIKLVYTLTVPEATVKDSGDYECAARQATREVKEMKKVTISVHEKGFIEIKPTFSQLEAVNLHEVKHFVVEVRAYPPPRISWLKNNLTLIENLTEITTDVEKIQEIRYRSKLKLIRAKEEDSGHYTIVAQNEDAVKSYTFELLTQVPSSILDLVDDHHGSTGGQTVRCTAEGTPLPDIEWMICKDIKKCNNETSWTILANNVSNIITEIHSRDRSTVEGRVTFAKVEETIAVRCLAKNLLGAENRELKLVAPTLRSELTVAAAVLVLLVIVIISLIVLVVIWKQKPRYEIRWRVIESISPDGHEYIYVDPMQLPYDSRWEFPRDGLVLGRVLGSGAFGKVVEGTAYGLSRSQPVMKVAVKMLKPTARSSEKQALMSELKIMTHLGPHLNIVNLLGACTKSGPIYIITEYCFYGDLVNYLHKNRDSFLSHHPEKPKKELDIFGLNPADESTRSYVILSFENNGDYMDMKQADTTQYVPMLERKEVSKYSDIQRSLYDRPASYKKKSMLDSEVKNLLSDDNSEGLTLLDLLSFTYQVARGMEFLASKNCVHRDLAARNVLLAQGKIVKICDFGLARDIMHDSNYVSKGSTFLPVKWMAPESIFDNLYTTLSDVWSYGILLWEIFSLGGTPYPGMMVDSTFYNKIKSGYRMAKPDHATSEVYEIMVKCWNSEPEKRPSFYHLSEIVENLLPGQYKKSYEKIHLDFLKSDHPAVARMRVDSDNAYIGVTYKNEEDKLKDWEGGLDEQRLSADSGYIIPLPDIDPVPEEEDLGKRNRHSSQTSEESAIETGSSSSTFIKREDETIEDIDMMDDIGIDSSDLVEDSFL

[7] = target: Cyclin-dependent kinase 9 (Homo sapiens, UniProt P50750); format: functional;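 note: value from the CDK9 entry of a kinome-spanning kinase panel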
Cyclin-dependent kinase 9, sequence (P50750 whole entry): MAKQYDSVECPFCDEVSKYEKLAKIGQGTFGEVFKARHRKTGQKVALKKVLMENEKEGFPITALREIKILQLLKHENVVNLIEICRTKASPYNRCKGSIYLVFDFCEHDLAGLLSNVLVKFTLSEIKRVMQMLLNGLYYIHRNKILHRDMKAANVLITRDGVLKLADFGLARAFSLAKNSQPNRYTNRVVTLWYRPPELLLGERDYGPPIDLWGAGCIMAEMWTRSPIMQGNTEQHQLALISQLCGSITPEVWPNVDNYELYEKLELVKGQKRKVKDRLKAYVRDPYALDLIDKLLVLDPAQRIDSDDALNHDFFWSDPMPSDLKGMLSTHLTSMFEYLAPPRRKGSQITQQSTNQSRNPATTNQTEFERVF

[8] = target: Mitogen-activated protein kinase kinase kinase kinase 4 (Homo sapiens, UniProt O95819); format: functional
[9] = target: Macrophage colony-stimulating factor 1 receptor (Homo sapiens, UniProt P07333); format: functional;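 note: value comes from the Navigating the Kinome screening panel, CSF1R member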
Macrophage colony-stimulating factor 1 receptor, sequence (P07333 whole entry): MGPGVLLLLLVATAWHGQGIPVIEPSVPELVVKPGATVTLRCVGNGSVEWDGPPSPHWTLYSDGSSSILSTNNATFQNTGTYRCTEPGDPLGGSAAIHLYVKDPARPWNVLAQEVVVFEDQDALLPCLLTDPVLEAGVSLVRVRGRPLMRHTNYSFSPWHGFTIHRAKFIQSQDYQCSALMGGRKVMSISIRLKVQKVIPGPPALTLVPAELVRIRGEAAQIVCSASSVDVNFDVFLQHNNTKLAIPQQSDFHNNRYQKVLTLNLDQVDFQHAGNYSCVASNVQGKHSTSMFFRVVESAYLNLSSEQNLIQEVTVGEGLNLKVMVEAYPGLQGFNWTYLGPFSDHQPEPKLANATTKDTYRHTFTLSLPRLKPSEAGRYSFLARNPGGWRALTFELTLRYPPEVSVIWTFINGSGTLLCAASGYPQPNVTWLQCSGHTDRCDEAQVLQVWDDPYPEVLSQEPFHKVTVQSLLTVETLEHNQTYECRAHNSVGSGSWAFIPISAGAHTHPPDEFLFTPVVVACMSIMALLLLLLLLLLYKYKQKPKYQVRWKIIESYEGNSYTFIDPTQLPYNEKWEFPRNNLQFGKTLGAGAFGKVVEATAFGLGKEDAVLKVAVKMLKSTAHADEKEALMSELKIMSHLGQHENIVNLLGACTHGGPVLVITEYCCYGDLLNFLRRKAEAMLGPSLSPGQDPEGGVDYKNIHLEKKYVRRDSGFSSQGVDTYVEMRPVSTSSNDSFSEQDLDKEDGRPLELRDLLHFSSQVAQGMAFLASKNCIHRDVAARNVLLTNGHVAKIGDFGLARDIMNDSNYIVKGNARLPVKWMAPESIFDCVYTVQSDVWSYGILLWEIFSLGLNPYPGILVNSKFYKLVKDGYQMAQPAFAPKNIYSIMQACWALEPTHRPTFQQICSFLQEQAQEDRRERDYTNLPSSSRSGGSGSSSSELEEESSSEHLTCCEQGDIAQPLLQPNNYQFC

Insulin-degrading enzyme = target: T2, Insulin-degrading enzyme (Homo sapiens, UniProt P14735); assay: activators of endogenous IDE in HEK cells, dose response, cell-based, fluorescence polarization (AID 588439); format: functional
T2 sequence (P14735 whole entry): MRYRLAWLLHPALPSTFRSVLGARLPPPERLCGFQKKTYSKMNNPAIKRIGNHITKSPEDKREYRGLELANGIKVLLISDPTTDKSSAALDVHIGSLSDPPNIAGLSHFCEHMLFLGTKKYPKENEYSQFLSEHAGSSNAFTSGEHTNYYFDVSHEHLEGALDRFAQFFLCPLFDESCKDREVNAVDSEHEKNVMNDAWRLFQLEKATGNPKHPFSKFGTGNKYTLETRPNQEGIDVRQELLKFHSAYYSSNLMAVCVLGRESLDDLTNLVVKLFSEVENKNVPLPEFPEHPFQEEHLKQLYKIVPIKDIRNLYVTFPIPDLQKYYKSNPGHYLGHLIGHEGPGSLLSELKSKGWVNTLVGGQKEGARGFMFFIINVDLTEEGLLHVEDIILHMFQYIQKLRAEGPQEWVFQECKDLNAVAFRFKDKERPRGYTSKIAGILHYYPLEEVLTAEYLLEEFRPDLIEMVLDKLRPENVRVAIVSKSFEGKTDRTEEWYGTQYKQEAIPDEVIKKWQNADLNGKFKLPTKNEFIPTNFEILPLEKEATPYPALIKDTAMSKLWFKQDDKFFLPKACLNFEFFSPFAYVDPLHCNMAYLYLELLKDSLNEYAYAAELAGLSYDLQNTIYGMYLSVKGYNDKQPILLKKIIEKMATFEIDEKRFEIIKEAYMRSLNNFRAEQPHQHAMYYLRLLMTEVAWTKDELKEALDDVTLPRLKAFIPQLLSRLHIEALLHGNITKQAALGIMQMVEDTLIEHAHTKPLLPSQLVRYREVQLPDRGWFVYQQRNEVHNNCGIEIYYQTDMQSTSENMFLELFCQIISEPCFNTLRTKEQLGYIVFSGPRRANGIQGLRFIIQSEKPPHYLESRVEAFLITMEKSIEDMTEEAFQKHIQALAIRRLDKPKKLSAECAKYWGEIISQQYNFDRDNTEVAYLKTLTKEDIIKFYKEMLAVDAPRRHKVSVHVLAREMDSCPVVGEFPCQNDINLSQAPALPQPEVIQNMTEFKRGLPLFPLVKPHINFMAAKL

IC50 (SUMO-activating enzyme)	Ki [2]	Ki [3]	Ki (LIM domain kinase 1)	Ki [4]	Ki [5]	Ki [6]	Ki [7]	Ki [8]	Ki [9]	Structure (SMILES)	AC50 [1]	EC50 (Insulin-degrading enzyme)
5.63 µM (active)										O=C(NNc1cc(N2CCCC2)nc(N2CCCC2)n1)c1ccc([N+](=O)[O-])cc1	13.7 µM (active)	
	3.16 µM (active)	> 6.31 µM (inactive)	0.158 µM (active)	0.316 µM (active)	> 2.51 µM (inactive)	1.58 µM (active)	0.251 µM (active)	> 5.01 µM (inactive)	> 2.51 µM (inactive)	O=C(Cc1cccs1)Nc1nc2ccccc2s1		
										O=S(=O)(O)c1cccc2c(N=Nc3ccc(O)c4ncccc34)cccc12	7.57 µM (active)	8.8 µM (active)

— ChEMBL document CHEMBL1201862, “PubChem BioAssay data set” (2004)
